Data from US20240360154A1, “AROYL SUBSTITUTED TRICYCLIC COMPOUND, PREPARATION METHOD THEREFOR AND USE THEREOF” (GENFLEET THERAPEUTICS (SHANGHAI) INC., priority 2020, published 2024).

How the values were obtained:
BTK = BTK (Homo sapiens (Human), UniProt Q06187); assay: BTK enzyme experiment (ADP-Glo kinase assay); assay type: biochemical; settings: 10 nM BTK, ATP 125 μM, Poly(Glu4, Tyr1), 90 minutes at 20° C.; read-out: BTK(WT) IC50
In short: (§1)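 Wild-type or C481S BTK, added as 2× solution at 10 nM, preincubated 10 min with 3-fold compound dilutions in 50 mM HEPES pH 7.5, 10 mM MgCl2, 2 mM DTT, 0.0015% Brij-35. ADP-Glo luminescence norm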

TMD-8 cells = assay: TMD-8 proliferation inhibition experiment; assay type: cell-based; settings: human diffuse large B lymphoma cells, three days incubation
In short: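 Log-phase cells seeded in 384-well plates (600 TMD-8 in RPMI 1640, 2000 OCI-LY10 in IMDM, both 10% FBS), then exposed one day later to 3-fold compound dilutions at 0.25% DMSO for three days. ADP-Glo luminescence read; inhibition versus DMSO and medium-only blank, IC50 by four-parameter fit.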

p-BTK (WT) = p-BTK (WT) (Homo sapiens (Human), UniProt Q06187); assay: p-BTK cell experiment, HEK293 transfected with WT-BTK plasmid (P-BTK Y223 sandwich ELISA); assay type: cell-based; settings: HEK293 cells, compound cultured for two hours
Chain of p-BTK (WT) (Q06187 whole entry): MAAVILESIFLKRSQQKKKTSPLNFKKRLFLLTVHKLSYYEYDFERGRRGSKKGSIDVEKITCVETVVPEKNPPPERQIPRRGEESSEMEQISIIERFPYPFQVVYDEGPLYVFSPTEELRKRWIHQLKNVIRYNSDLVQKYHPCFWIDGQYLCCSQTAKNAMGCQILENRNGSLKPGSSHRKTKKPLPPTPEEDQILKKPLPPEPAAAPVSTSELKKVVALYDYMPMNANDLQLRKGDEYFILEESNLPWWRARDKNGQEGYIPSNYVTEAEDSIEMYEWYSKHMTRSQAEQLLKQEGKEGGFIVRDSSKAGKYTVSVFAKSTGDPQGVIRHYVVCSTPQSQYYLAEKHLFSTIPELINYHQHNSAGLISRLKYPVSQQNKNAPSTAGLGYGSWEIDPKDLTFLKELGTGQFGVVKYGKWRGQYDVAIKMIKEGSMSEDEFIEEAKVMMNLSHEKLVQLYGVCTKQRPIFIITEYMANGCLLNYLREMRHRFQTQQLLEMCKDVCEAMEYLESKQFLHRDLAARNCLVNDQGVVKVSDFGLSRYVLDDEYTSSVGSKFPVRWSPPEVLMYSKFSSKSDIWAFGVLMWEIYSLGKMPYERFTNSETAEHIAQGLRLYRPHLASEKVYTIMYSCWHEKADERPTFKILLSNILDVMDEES
Method: (§2) Day 1: HEK293 cells (ADDEXBIO, T0011001) at logarithmic growth phase were taken, digested with enzyme EDTA, collected and counted, and 2E6 cells were inoculated in a 10 cm culture dish and cultured overnight. Day 2: A mixed solution containing 6 μg of WT-BTK/C481S-BTK plasmid and 18 μL of FuGENE HD transfection reagent was prepared by using 1000 μL of Opti-MEM. After standing at room temperature for 10 minutes, the mixed solution was slowly added to the culture dish with a pipettor and cultured overnight. Day 3: The culture dish was taken out, and the cells were digested with enzyme EDTA, collected and counted, and 1E4 cells were inoculated in a 96-well cell culture plate and cultured overnight. A 3.16-fold gradient concentration stock solution of 1000× compound was prepared using DMSO, and placed at room temperature. Day 4: A prepared 1000× compound stock solution was taken, and diluted 200-fold to 5× compound stock solution with culture medium. 5× compound stock solution was added to each cell culture well with a final concentration of 1× compound stock solution and a DMSO content of 0.1%. DMSO was used as an experimental control. After the compound was added and cultured for two hours, the residual culture medium was removed. 100 μL of cell lysis buffer was added to each well, stood on ice for 30 minutes, and ultrasonically lysed with ice water for 5 minutes. After diluting the cell lysate in proportion, 80 μL of the mixture was transfer to an ELISA plate, and 80 μL of cell lysis buffer was added to the blank well. After incubating in an incubator at 37° C. for 2 hours, the plate was taken and the antibody incubation and color development termination operation were completed according to the instructions of Pathscan P-BTK (Y223) Sandwich ELISA Kit (Cell Signaling #23843 CA), and finally the OD value was read. The inhibition rate of the compound (%)=(ODcontrol−ODcompound)/(ODcontrol−ODblank)×100% was calculated. The compound gradient dilution concentration and the corresponding cell proliferation inhibition rate were fit by using Prism 8 four-parameter method, and IC50 value was calculated.

p-BTK (C481S) = p-BTK (C481S) (Homo sapiens (Human), UniProt Q06187, C481S); assay: p-BTK cell experiment, HEK293 transfected with C481S-BTK plasmid (P-BTK Y223 sandwich ELISA); assay type: cell-based; settings: HEK293 cells, compound cultured for two hours
Chain of p-BTK (C481S) (Q06187 whole entry C481S): as the sequence (Q06187 whole entry) above, with C481S counted along it
Method: as §2

BTK (C481S) = BTK (C481S) (Homo sapiens (Human), UniProt Q06187, C481S); assay: BTK C481S enzyme experiment (ADP-Glo kinase assay); assay type: biochemical; settings: 10 nM BTK C481S, ATP 125 μM, Poly(Glu4, Tyr1), 90 minutes at 20° C.
Chain of BTK (C481S) (Q06187 whole entry C481S): as the sequence (Q06187 whole entry) above, with C481S counted along it
In short: as §1

Chain of BTK (Q06187 whole entry): as the sequence (Q06187 whole entry) above

SMILES	IC50 (BTK) [nM]	IC50 (p-BTK (WT)) [nM]	IC50 (p-BTK (C481S)) [nM]	IC50 (BTK (C481S)) [nM]	IC50 (TMD-8 cells; Homo sapiens, TMD8, 72 h) [nM]	IC50 (TMD-8 cells) [nM]
O=C(c1ccc(Oc2ccccc2)cc1Cl)c1c[nH]c2ncc3c(c12)N[C@@]1(CC[C@@H](O)C1)C(=O)N3 (single isomer, unassigned) [Z24-a]	5.5	46.9	50	8.4		113
COC[C@]1(C)Nc2c(cnc3[nH]cc(C(=O)c4ccc(Oc5ccccc5)cc4Cl)c23)NC1=O [Z13-1]	11.4	36.2	42.2	9.8		37.9
CCOC[C@]1(C)Nc2c(cnc3[nH]cc(C(=O)c4ccc(Oc5ccccc5)cc4Cl)c23)NC1=O (single isomer, unassigned) [Z67-1]	9.6	37.3	42.6	10.3	161	
N#C[C@@H]1CC[C@]2(C1)Nc1c(cnc3[nH]cc(C(=O)c4ccc(Oc5ccccc5)cc4Cl)c13)NC2=O (single isomer, unassigned) [Z26-1]	15.6	31.5	38.4	15.4		47.7
CC(=O)N1CC[C@]2(C1)Nc1c(cnc3[nH]cc(C(=O)c4ccc(Oc5ccccc5)cc4Cl)c13)NC2=O (single isomer, unassigned) [Z4-1]	17	70.8	97.6	6.8		305
COC1CCC2(C1)Nc1c(cnc3[nH]cc(C(=O)c4ccc(Oc5ccccc5)cc4Cl)c13)NC2=O (single isomer, unassigned) [Z25-2, 9′-(2-chloro-4-phenoxybenzoyl)-3-methoxy-4′,7′-dihydrospiro[cyclopentane-1,2′-pyrrolo[3′,2′:5,6]pyrido[3,4-b]pyrazin]-3′(1′H)-one]	14.7	15.2	32.7	8.7		80.4
O=C(c1ccc(Oc2ccccc2)cc1Cl)c1c[nH]c2ncc3c(c12)N[C@]1(CC[C@@H](O)C1)C(=O)N3 (single isomer, unassigned) [Z24-c]	3.2	19.6	16.2	3		50.6
COC[C@@]1(C)Nc2c(cnc3[nH]cc(C(=O)c4ccc(Oc5ccccc5)cc4F)c23)NC1=O (single isomer, unassigned) [Z71-1]	8.5	32.3	40.3	8.3		180
O=C(c1ccc(Oc2ccccc2)cc1Cl)c1c[nH]c2ncc3c(c12)N[C@@]1(CCCOC1)C(=O)N3 (single isomer, unassigned) [Z16-2]	5	10.4	10.4	5.6		23
COCC1(C)Nc2c(cnc3[nH]cc(C(=O)c4ccc(Oc5cc(C)ccn5)cc4Cl)c23)NC1=O (single isomer, unassigned) [Z64-1, 9-(2-chloro-4-((4-methylpyridin-2-yl)oxy)benzoyl)-2-(methoxymethyl)-2-methyl-1,2,4,7-tetrahydro-3H-pyrrolo[3′,2′:5,6]pyrido[3,4-b]pyrazin-3-one]	6.3	58.5	198	10.7	194	
C[C@@]1(CO)Nc2c(cnc3[nH]cc(C(=O)c4ccc(Oc5ccccc5)cc4Cl)c23)NC1=O (single isomer, unassigned) [Z9-2]	9.5	62.6	134	10.8		73.8

The next lines start with results.

IC50 (BTK) [nM]	IC50 (p-BTK (WT)) [nM]	IC50 (p-BTK (C481S)) [nM]	IC50 (BTK (C481S)) [nM]	SMILES	IC50 (TMD-8 cells; Homo sapiens, TMD8, 72 h) [nM]	IC50 (TMD-8 cells) [nM]
6.7	80.5	114	7.6	COC[C@]1(C)Nc2c(cnc3[nH]cc(C(=O)c4ccc(Oc5ccccn5)cc4Cl)c23)NC1=O [Z136, (S)-9-(2-chloro-4-(pyridin-2-yloxy)benzoyl)-2-(methoxymethyl)-2-methyl-1,2,4,7-tetrahydro-3H-pyrrolo[3′,2′:5,6]pyrido[3,4-b]pyrazin-3-one]	178	
11.5	20.5	22.4	5.1	O=C(c1ccc(Oc2ccccc2)cc1Cl)c1c[nH]c2ncc3c(c12)NC1(CCC(N2CCOCC2)C1)C(=O)N3 (centres unmarked) [Z141, 9′-(2-chloro-4-phenoxybenzoyl)-3-morpholino-4′,7′-dihydrospiro[cyclopentane-1,2′-pyrrolo[3′,2′:5,6]pyrido[3,4-b]pyrazin]-3′(1′H)-one]	58.4	
8.5	10.2	20.1	9	COC[C@]1(C)Nc2c(cnc3[nH]cc(C(=O)c4ccc(Oc5cc(F)ccc5OC)cc4Cl)c23)NC1=O [Z169, (S)-9-(2-chloro-4-(5-fluoro-2-methoxyphenoxy)benzoyl)-2-(methoxymethyl)-2-methyl-1,2,4,7-tetrahydro-3H-pyrrolo[3′,2′:5,6]pyrido[3,4-b]pyrazin-3-one]	46.9	
8.6	28	48.2	10.6	COC[C@]1(C)Nc2c(cnc3[nH]cc(C(=O)c4ccc(Oc5ccccc5F)cc4Cl)c23)NC1=O [Z155, (S)-9-(2-chloro-4-(2-fluorophenoxy)benzoyl)-2-(methoxymethyl)-2-methyl-1,2,4,7-tetrahydro-3H-pyrrolo[3′,2′:5,6]pyrido[3,4-b]pyrazin-3-one]	87	
23.5	19.3	33	13.2	[2H]C([2H])([2H])[C@@]1(COC)Nc2c(cnc3[nH]cc(C(=O)c4ccc(Oc5ccccc5)cc4Cl)c23)NC1=O [Z149, (S)-9-(2-chloro-4-phenoxybenzoyl)-2-(methoxymethyl)-2-(methyl-d3)-1,2,4,7-tetrahydro-3H-pyrrolo[3′,2′:5,6]pyrido[3,4-b]pyrazin-3-one]	130	
22.8	23.5	58	14.5	CC1(CO)Nc2c(cnc3[nH]cc(C(=O)c4ccc(Oc5ccccc5)cc4Cl)c23)NC1=O (centres unmarked) [Z9, 9-(2-chloro-4-phenoxybenzoyl)-2-(hydroxymethyl)-2-methyl-1,2,4,7-tetrahydro-3H-pyrrolo[3′,2′:5,6]pyrido[3,4-b]pyrazin-3-one]	232	
10.6	17	39.2	12.5	[2H]C([2H])([2H])OC[C@]1(C([2H])([2H])[2H])Nc2c(cnc3[nH]cc(C(=O)c4ccc(Oc5ccccc5)cc4Cl)c23)NC1=O [Z161, (S)-9-(2-chloro-4-phenoxybenzoyl)-2-((methoxy-d3)methyl)-2-(methyl-d3)-1,2,4,7-tetrahydro-3H-pyrrolo[3′,2′:5,6]pyrido[3,4-b]pyrazin-3-one]	72.8	
12.9	50.1	49.4	10.3	CN(C)C1CCC2(C1)Nc1c(cnc3[nH]cc(C(=O)c4ccc(Oc5ccccc5)cc4Cl)c13)NC2=O (centres unmarked) [Z137]		139
